Laboratory results reported in ChEMBL document CHEMBL1949598, “Synthesis, cytostatic activity and ADME properties of C-5 substituted and N-acyclic pyrimidine derivatives” (Bioorg Med Chem Lett, 2012).
Active and inactive are the calls of the source. The calls are words filed in the database; no cut-off is given here.

Experiments:
[1] = Half life in rat liver microsomes at 1 uM
[2] = Half life in human plasma at 5 uM; format: ADME
[3] = Metabolic stability in human plasma assessed as compound remaining at 5 uM after 24 hrs by LC/MS/MS analysis; format: ADME, cell-free; conditions: read-out: Stability
[4] = Half life in mouse liver microsomes at 1 uM
[5] = Half life in mouse plasma at 5 uM; format: ADME
[6] = Metabolic stability in rat liver microsomes assessed as compound remaining at 1 uM after 60 mins by LC/MS/MS analysis; format: ADME, Microsome; conditions: read-out: Stability
MDR1 (P-gp), human [7] = assay: Apparent permeability from basolateral to apical side in MDCK2 cells expressing human MDR1 at 10 uM after 60 mins; format: ADME, cell-based, Canis lupus familiaris, MDCK-II; conditions: dog, MDCK-MDR1
MDR1 (P-gp), human [8] = assay: Apparent permeability from apical to basolateral side in MDCK2 cells expressing human MDR1 at 10 uM after 60 mins; format: ADME, cell-based, Canis lupus familiaris, MDCK-II; conditions: dog, MDCK-MDR1
[9] = Metabolic stability in mouse liver microsomes assessed as compound remaining at 1 uM after 60 mins by LC/MS/MS analysis; format: ADME, Microsome; conditions: read-out: Stability
[10] = Half life in rat plasma at 5 uM; format: ADME
[11] = (§1) Efflux ratio of apparent permeability from apical to basolateral side over basolateral to apical side in MDCK2 cells expressing human MDR1 in presence of P-gp inhibitor elacridar; format: ADME, cell-based, Canis lupus familiaris, MDCK-II; conditions: dog, mdck-ii
[12] = Metabolic stability in human liver microsomes assessed as compound remaining at 1 uM after 60 mins by LC/MS/MS analysis; format: ADME, Microsome; conditions: read-out: Stability
MDR1 (P-gp), human [13] = assay: Efflux ratio of apparent permeability from apical to basolateral over basolateral to apical side of MDCK2 cells expressing human MDR1 gene; format: ADME, cell-based, Canis lupus familiaris, MDCK-II; conditions: dog, MDCK-MDR1
[14] = Metabolic stability in rat plasma assessed as compound remaining at 5 uM after 24 hrs by LC/MS/MS analysis; format: ADME, cell-free; conditions: read-out: Stability
[15] = Metabolic stability in mouse plasma assessed as compound remaining at 5 uM after 24 hrs by LC/MS/MS analysis; format: ADME, cell-free; conditions: read-out: Stability
[16] = Half life in human liver microsomes at 1 uM
HCT-116 [17] = assay: Cytotoxicity against human HCT116 cells up to 100 uM after 72 hrs by MTT assay; format: functional, cell-based
MCF7 [18] = assay: Cytotoxicity against human MCF7 cells up to 100 uM after 72 hrs by MTT assay; format: functional, cell-based
NCI-H460 [19] = assay: Cytotoxicity against human H460 cells up to 100 uM after 72 hrs by MTT assay; format: functional, cell-based
HCT-116 [20] = assay: cells; conditions: Homo sapiens, HCT-116, 72 h
MCF7 [21] = assay: cells; conditions: Homo sapiens, MCF7, 72 h
Description: Cytotoxicity against human MCF7 cells after 72 hrs by MTT assay

NCI-H460 [22] = assay: Cytotoxicity against human H460 cells after 72 hrs by MTT assay; format: functional, cell-based; conditions: NCI-H460, 72 h
HCT-116 [23] = assay: Cell cycle arrest in human HCT116 cells assessed as accumulation of cells at S phase at 5 uM after 24 hrs using propidium iodide staining by FACS analysis (reference value: 50%); format: functional
HCT-116 [24] = assay: Cell cycle arrest in human HCT116 cells assessed as accumulation of cells at sub-G1 phase at 5 uM after 24 hrs using propidium iodide staining by FACS analysis (reference value: 1.8%); format: functional
HCT-116 [25] = assay: Cell cycle arrest in human HCT116 cells assessed as accumulation of cells at G2/M phase at 1 uM after 24 hrs using propidium iodide staining by FACS analysis (reference value: 17.4%); format: functional
HCT-116 [26] = assay: Cell cycle arrest in human HCT116 cells assessed as accumulation of cells at G1 phase at 5 uM after 48 hrs using propidium iodide staining by FACS analysis (reference value: 42.3%); format: functional
HCT-116 [27] = assay: Cell cycle arrest in human HCT116 cells assessed as accumulation of cells at G1 phase at 1 uM after 24 hrs using propidium iodide staining by FACS analysis (reference value: 32.5%); format: functional
HCT-116 [28] = assay: Cell cycle arrest in human HCT116 cells assessed as accumulation of cells at sub-G1 phase at 5 uM after 48 hrs using propidium iodide staining by FACS analysis (reference value: 1.5%); format: functional
HCT-116 [29] = assay: Cell cycle arrest in human HCT116 cells assessed as accumulation of cells at S phase at 5 uM after 48 hrs using propidium iodide staining by FACS analysis (reference value: 31%); format: functional
HCT-116 [30] = assay: Cell cycle arrest in human HCT116 cells assessed as accumulation of cells at G1 phase at 1 uM after 48 hrs using propidium iodide staining by FACS analysis (reference value: 42.3%); format: functional
HCT-116 [31] = assay: Cell cycle arrest in human HCT116 cells assessed as accumulation of cells at G2/M phase at 1 uM after 48 hrs using propidium iodide staining by FACS analysis (reference value: 26.6%); format: functional
HCT-116 [32] = assay: Cell cycle arrest in human HCT116 cells assessed as accumulation of cells at S phase at 1 uM after 24 hrs using propidium iodide staining by FACS analysis (reference value: 50%); format: functional
HCT-116 [33] = assay: Cell cycle arrest in human HCT116 cells assessed as accumulation of cells at S phase at 1 uM after 48 hrs using propidium iodide staining by FACS analysis (reference value: 31%); format: functional
MDR1 (P-gp), human [34] = assay: as §1; format: ADME, cell-based, Canis lupus familiaris, MDCK-II; conditions: dog, MDCK-MDR1, with elacridar (P-gp inhibitor; concentration not stated)
HCT-116 [35] = assay: Cell cycle arrest in human HCT116 cells assessed as accumulation of cells at sub-G1 phase at 1 uM after 24 hrs using propidium iodide staining by FACS analysis (reference value: 1.8%); format: functional
HCT-116 [36] = assay: Cell cycle arrest in human HCT116 cells assessed as accumulation of cells at sub-G1 phase at 1 uM after 48 hrs using propidium iodide staining by FACS analysis (reference value: 1.5%); format: functional
HCT-116 [37] = assay: Cell cycle arrest in human HCT116 cells assessed as accumulation of cells at G2/M phase at 5 uM after 24 hrs using propidium iodide staining by FACS analysis (reference value: 17.4%); format: functional
HCT-116 [38] = assay: Cell cycle arrest in human HCT116 cells assessed as accumulation of cells at G2/M phase at 5 uM after 48 hrs using propidium iodide staining by FACS analysis (reference value: 26.6%); format: functional
HCT-116 [39] = assay: Cell cycle arrest in human HCT116 cells assessed as accumulation of cells at G1 phase at 5 uM after 24 hrs using propidium iodide staining by FACS analysis (reference value: 32.5%); format: functional

## Cc1nc(Cl)nc(Cl)c1CCCl
[1]
  half-life at 1 µM: 134 min
[2]
  half-life at 5 µM: 600 min
[3]
  remaining at 24 h, 5 µM: 20%
[4]
  half-life at 1 µM: 46 min
[5]
  half-life at 5 µM: 478 min
[6]
  remaining at 1 h, 1 µM: 74%
MDR1 (P-gp), human [7]
  Papp B→A at 1 h, 10 µM: 20.9 ×10⁻⁶ cm/s
MDR1 (P-gp), human [8]
  Papp A→B at 1 h, 10 µM: 35.8 ×10⁻⁶ cm/s
[9]
  remaining at 1 h, 1 µM: 41%
[10]
  half-life at 5 µM: 184 min
[11]
  Ratio: 1.4
[12]
  remaining at 1 h, 1 µM: 76%
MDR1 (P-gp), human [13]
  efflux ratio: 0.6
[14]
  remaining at 24 h, 5 µM: 3%
[15]
  remaining at 24 h, 5 µM: 22%
[16]
  half-life at 1 µM: 145 min

## COc1nc(Cl)ncc1CCO
HCT-116 [17]
  growth inhibition (GI): inactive
MCF7 [18]
  growth inhibition (GI): inactive
NCI-H460 [19]
  growth inhibition (GI): inactive

## CC(=O)OCCc1cnc(Cl)nc1Cl
HCT-116 [20]
  IC50: 29 µM
MCF7 [21]
  IC50: 30 µM
HCT-116 [17]
  growth inhibition (GI): Active
NCI-H460 [22]
  IC50: 31 µM
MCF7 [18]
  growth inhibition (GI): Active
NCI-H460 [19]
  growth inhibition (GI): Active

## COCn1c(=O)[nH]cc(CCOC(C)=O)c1=O
HCT-116 [17]
  growth inhibition (GI): inactive
MCF7 [18]
  growth inhibition (GI): inactive
NCI-H460 [19]
  growth inhibition (GI): inactive

## COc1ncc2c(n1)OCC2
HCT-116 [17]
  growth inhibition (GI): inactive
MCF7 [18]
  growth inhibition (GI): inactive
NCI-H460 [19]
  growth inhibition (GI): inactive

## COCOCCc1cn(COC)c(=O)nc1OC
HCT-116 [17]
  growth inhibition (GI): inactive
MCF7 [18]
  growth inhibition (GI): inactive
NCI-H460 [19]
  growth inhibition (GI): inactive

## COCn1cc(CCO)c(=O)[nH]c1=O
HCT-116 [17]
  growth inhibition (GI): inactive
MCF7 [18]
  growth inhibition (GI): inactive
NCI-H460 [19]
  growth inhibition (GI): inactive

## COc1ncc(CCO)c(OC)n1
HCT-116 [17]
  growth inhibition (GI): inactive
MCF7 [18]
  growth inhibition (GI): inactive
NCI-H460 [19]
  growth inhibition (GI): inactive

## CC(=O)OCCc1c[nH]c(=O)[nH]c1=O
HCT-116 [17]
  growth inhibition (GI): inactive
MCF7 [18]
  growth inhibition (GI): inactive
NCI-H460 [19]
  growth inhibition (GI): inactive

## COCn1cc(CCOC(C)=O)c(=O)n(COC)c1=O
HCT-116 [17]
  growth inhibition (GI): inactive
MCF7 [18]
  growth inhibition (GI): inactive
NCI-H460 [19]
  growth inhibition (GI): inactive

## COCn1cc(CCOC(C)=O)c(=O)[nH]c1=O
HCT-116 [17]
  growth inhibition (GI): inactive
MCF7 [18]
  growth inhibition (GI): inactive
NCI-H460 [19]
  growth inhibition (GI): inactive

## COCn1c(=O)[nH]cc(CCO)c1=O
HCT-116 [17]
  growth inhibition (GI): inactive
MCF7 [18]
  growth inhibition (GI): inactive
NCI-H460 [19]
  growth inhibition (GI): inactive

## Clc1ncc2c(n1)OCC2
HCT-116 [20]
  IC50: 13 µM
MCF7 [21]
  IC50: 45 µM
HCT-116 [17]
  growth inhibition (GI): Active
NCI-H460 [22]
  IC50: 22 µM
MCF7 [18]
  growth inhibition (GI): Active
NCI-H460 [19]
  growth inhibition (GI): Active

## COc1nc(Cl)ncc1CCF
HCT-116 [17]
  growth inhibition (GI): inactive
MCF7 [18]
  growth inhibition (GI): inactive
NCI-H460 [19]
  growth inhibition (GI): inactive

## COCn1cc(CCO)c(OC)nc1=O
HCT-116 [17]
  growth inhibition (GI): inactive
MCF7 [18]
  growth inhibition (GI): inactive
NCI-H460 [19]
  growth inhibition (GI): inactive

## COCn1cc(CCO)c(=O)n(COC)c1=O
HCT-116 [17]
  growth inhibition (GI): inactive
MCF7 [18]
  growth inhibition (GI): inactive
NCI-H460 [19]
  growth inhibition (GI): inactive

## ClCCc1cnc(Cl)nc1Cl
[1]
  half-life at 1 µM: 134 min
HCT-116 [23]
  Activity: 14.6%
HCT-116 [24]
  Activity: 8.1%
HCT-116 [20]
  IC50: 0.8 µM
HCT-116 [25]
  Activity: 17.2%
MCF7 [21]
  IC50: 10 µM
HCT-116 [26]
  Activity: 24.6%
[2]
  half-life at 5 µM: 153 min
[3]
  remaining at 24 h, 5 µM: 0%
HCT-116 [27]
  Activity: 33.5%
[4]
  half-life at 1 µM: 34 min
HCT-116 [28]
  Activity: 8.5%
HCT-116 [29]
  Activity: 14.8%
HCT-116 [30]
  Activity: 41.7%
HCT-116 [31]
  Activity: 26.7%
[5]
  half-life at 5 µM: 91 min
HCT-116 [32]
  Activity: 48.8%
[6]
  remaining at 1 h, 1 µM: 73%
NCI-H460 [22]
  IC50: 3 µM
MDR1 (P-gp), human [7]
  Papp B→A at 1 h, 10 µM: 25.8 ×10⁻⁶ cm/s
MDR1 (P-gp), human [8]
  Papp A→B at 1 h, 10 µM: 20.8 ×10⁻⁶ cm/s
[9]
  remaining at 1 h, 1 µM: 33%
[10]
  half-life at 5 µM: 24 min
HCT-116 [33]
  Activity: 31.5%
MDR1 (P-gp), human [34]
  efflux ratio: 1.2
[12]
  remaining at 1 h, 1 µM: 65%
HCT-116 [35]
  Activity: 2.5%
MDR1 (P-gp), human [13]
  efflux ratio: 1.2
HCT-116 [36]
  Activity: 1.7%
HCT-116 [37]
  Activity: 77.6%
[14]
  remaining at 24 h, 5 µM: 0%
HCT-116 [38]
  Activity: 60.7%
[15]
  remaining at 24 h, 5 µM: 0%
HCT-116 [39]
  Activity: 7.8%
[16]
  half-life at 1 µM: 104 min

## O=c1[nH]cc(F)c(=O)[nH]1 [FLUOROURACIL]
MCF7 [21]
  IC50: 14 µM
NCI-H460 [22]
  IC50: 3 µM

## OCCc1cnc(Cl)nc1Cl
HCT-116 [17]
  growth inhibition (GI): inactive
MCF7 [18]
  growth inhibition (GI): inactive
NCI-H460 [19]
  growth inhibition (GI): inactive

## COCn1cc(CCF)c(=O)[nH]c1=O
HCT-116 [17]
  growth inhibition (GI): inactive
MCF7 [18]
  growth inhibition (GI): inactive
NCI-H460 [19]
  growth inhibition (GI): inactive

## COCOCCc1cnc(OC)nc1OC
HCT-116 [20]
  IC50: 75 µM
MCF7 [21]
  IC50: > 100 µM
HCT-116 [17]
  growth inhibition (GI): Active
NCI-H460 [22]
  IC50: > 100 µM
MCF7 [18]
  growth inhibition (GI): Active
NCI-H460 [19]
  growth inhibition (GI): Active
